Results published in patent US9187477B2, “Azabenzimidazole derivatives” (Boehringer Ingelheim International GmbH, priority 2013, dated 2015).

Columns and labels:
[1] = biological target: AMPK complex 1 (containing alpha1beta1gamma1) (Homo sapiens (Human), UniProt Q13131+Q9Y478); test: in vitro AMPK activation assay (ADP-Glo Kinase Assay); format: biochemical; details: AMPK alpha1beta1gamma1, ATP 30 μM, peptide 1 μM, 60 min, room temperature
From the text: Activated AMPK complex 1 (containing alpha1beta1gamma1) was obtained from baculovirus expression system. The gene encoding AMPK alpha1 was cloned into the pACG2T vector (BD Biosciences) to obtain a N-terminal Glutathion S transferase (GST)-fusion protein. The genes encoding AMPK beta1 and gamma1 were cloned into the p2Bac dual multiple cloning site vector (Invitrogen) with beta1 under the control of the p10 promoter and gamma1 under the control of the PH promoter. The transfer vectors containing AMPK were co-transfected individually with AcPNV BacMagic-3 DNA (EMD Millipore) in Sf9 cells and the recombinant baculoviruses were harvested after 5 days, followed by 3 rounds of amplification of the virus stock in Sf9 cells. AMPK (alpha1beta1gamma1) was expressed in High Five 5 cells by co-infection of recombinant alpha1 virus and recombinant beta1/gamma1 virus for 72 h at 27° C. Cells were harvested by centrifugation and lysed by 3 freeze/thaw cycles in PBS with 10% glycerol and protease inhibitor cocktail (Roche). After centrifugation AMPK a1b1g1 in the supernatant was captured by immobilized glutathione (GE Healthcare), impurities were washed away with PBS and AMPK alpha1beta1gamma1 was eluted with PBS containing 20 mM reduced gluthathione. The protein buffer was then exchanged to PBS with 10% glycerol and protein concentration was determined by UV absorbance.
The white 384-well Optiplates (cat. no. 6007299) were purchased from PerkinElmer. The V9101 ADP-Glo Kinase Assay and ultra pure ATP (V915A) was purchased from Promega. The substrate for AMPK (NH2-HMRSAMSGLHLVKRR_CONH2) was purchased from Upstate (12-355).
Compounds were tested in either serial dilutions or single dose concentrations. The serial compound dilutions were prepared in 100% DMSO automatically. The final DMSO concentration in the assay was 0.1%.
The Compound Stock Solutions were 10 mM in 100% DMSO. The compounds were solubilised at room temperature.
In the 384-well plates 1.25 ul of test compound in assay buffer was mixed with 1.25 ul of AMPK and 1.25 μl of the peptide (final concentration of 1 μM) and 1.25 μl of ATP (final concentration of 30 μM), both dissolved in assay buffer. This step was followed by an incubation time of 60 min. Then 5 μl of ADP Glo Reagent was added. This was followed by 40 min of incubation. Then 10 μl of Kinase Detection Reagent was admixed. The plates were sealed and after an incubation period of 30 min, the luminescence signal was measured in an Envision reader. All incubation steps were accomplished at room temperature.
Each assay microtiter plate contained wells with vehicle controls instead of compound (0.1% DMSO in water) as reference for the low signal (100% CTL, low signal), and wells with serial dilutions of AMP (final 30 μM) as reference for high signals.
The luminescence signal generated was proportional to the ADP concentration produced and was correlated with AMPK activity. The analysis of the data was performed by the calculation of the percentage of ATP consumption of AMPK in the presence of the test compound compared to the consumption of ATP in the presence of AMPK without compound. (RLU(sample)/RLU(low control))*100[RLU=relative luminescence units]
An activator of the AMPK enzyme gave values above 100% CTL.
EC50 values based on dose response curves are calculated with the XIFIT software using the 4 Parameter Logistic Model or Sigmoidal Dose-Response Model.

[2] = Metabolic stability: metabolic degradation with pooled human liver microsomes; format: in vitro ADME; details: for c (control) (metabolic stability), remaining test compound after NADPH independent incubation: incubation without NADPH, after 2 hours, human liver microsomes; for t1/2 INVITRO: pooled human liver microsomes 1 mg/ml, 37° C., test compound 1 μM, NADPH 1 mM
Method: The metabolic degradation of the test compound is assayed at 37° C. with pooled human liver microsomes. The final incubation volume of 100 μl per time point contains TRIS buffer pH 7.6 at room temperature (0.1 M), magnesium chloride (5 mM), microsomal protein (1 mg/ml) and the test compound at a final concentration of 1 μM.
Following a short preincubation period at 37° C., the reactions were initiated by addition of beta-nicotinamide adenine dinucleotide phosphate, reduced form (NADPH, 1 mM) and terminated by transferring an aliquot into solvent after different time points.
Additionally, the NADPH-independent degradation was monitored in incubations without NADPH, terminated at 2 hour time point. The [%] remaining test compound after NADPH independent incubation is reflected by the parameter c (control) (metabolic stability). A c (control) (metabolic stability) value around 100% excludes cofactor independent activities (e.g. from esterases).
The quenched incubations are pelleted by centrifugation (10000 g, 5 min).
An aliquot of the supernatant is assayed by LC-MS/MS for the amount of parent compound. The half-life (t1/2 INVITRO) is determined by the slope of the semilogarithmic plot of the concentration-time profile.

Sequence of AMPK complex 1 (containing alpha1beta1gamma1) (Q13131 whole entry, the tested form may be a part): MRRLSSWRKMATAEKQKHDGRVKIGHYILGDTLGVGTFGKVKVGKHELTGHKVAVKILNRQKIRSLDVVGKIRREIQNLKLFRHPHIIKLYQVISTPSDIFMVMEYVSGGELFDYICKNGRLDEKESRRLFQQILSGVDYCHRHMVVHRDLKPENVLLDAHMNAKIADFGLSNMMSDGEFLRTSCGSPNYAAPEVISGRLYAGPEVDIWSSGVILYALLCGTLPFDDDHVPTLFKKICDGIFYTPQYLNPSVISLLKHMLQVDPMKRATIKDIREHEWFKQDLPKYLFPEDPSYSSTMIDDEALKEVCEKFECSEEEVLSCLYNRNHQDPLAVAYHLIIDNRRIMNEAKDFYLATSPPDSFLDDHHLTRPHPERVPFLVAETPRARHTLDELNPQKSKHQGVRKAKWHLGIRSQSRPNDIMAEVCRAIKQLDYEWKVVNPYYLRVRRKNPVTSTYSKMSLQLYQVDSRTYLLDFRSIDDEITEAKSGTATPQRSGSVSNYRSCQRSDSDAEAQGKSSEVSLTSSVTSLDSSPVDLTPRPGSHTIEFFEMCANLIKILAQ
Sequence of AMPK complex 1 (containing alpha1beta1gamma1) (Q9Y478 whole entry, the tested form may be a part): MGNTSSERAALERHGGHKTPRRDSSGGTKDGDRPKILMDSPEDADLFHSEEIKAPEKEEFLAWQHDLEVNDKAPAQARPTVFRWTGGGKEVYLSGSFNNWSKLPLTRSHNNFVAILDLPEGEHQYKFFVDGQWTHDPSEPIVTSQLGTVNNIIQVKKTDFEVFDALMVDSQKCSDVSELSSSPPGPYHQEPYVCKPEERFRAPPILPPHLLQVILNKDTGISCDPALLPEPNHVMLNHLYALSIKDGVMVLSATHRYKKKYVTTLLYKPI
Sequence of AMPK complex 1 (containing alpha1beta1gamma1) (P54619 whole entry partner, the tested form may be a part): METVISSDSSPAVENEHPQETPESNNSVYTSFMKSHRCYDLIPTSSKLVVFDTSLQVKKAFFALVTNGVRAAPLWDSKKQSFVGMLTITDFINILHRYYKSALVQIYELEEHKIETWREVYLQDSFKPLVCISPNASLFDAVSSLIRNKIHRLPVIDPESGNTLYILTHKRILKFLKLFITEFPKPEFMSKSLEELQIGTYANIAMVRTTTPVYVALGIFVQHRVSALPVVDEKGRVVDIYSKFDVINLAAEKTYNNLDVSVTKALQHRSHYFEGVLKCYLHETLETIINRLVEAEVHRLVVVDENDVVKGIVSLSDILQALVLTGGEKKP

Row | Structure (SMILES) | EC50 [1] [nM] | c (control) (metabolic stability), remaining test compound after NADPH independent incubation [2] [%] | t1/2 INVITRO [2] [h]
1 | CCOC(=O)NC1CCN(c2ccc(-c3nc4[nH]c(O[C@@H]5CO[C@H]6[C@@H]5OC[C@H]6O)nc4cc3Cl)cc2)CC1 [Example 1, Ethyl 1-(4-(6-chloro-2-((3R,3aR,6R,6aR)-6-hydroxyhexahydrofuro[3,2-b]furan-3-yloxy)-3H-imidazo[4,5-b]pyridin-5-yl)phenyl)piperidin-4-ylcarbamate] | 1.2 | 100 | >2.17
2 | CN(C)C(=O)OC1CCN(c2ccc(-c3nc4[nH]c(O[C@@H]5CO[C@H]6[C@@H]5OC[C@H]6O)nc4cc3Cl)cc2)CC1 [Example 2, 1-(4-(6-Chloro-2-((3R,3aR,6R,6aR)-6-hydroxyhexahydrofuro[3,2-b]furan-3-yloxy)-3H-imidazo[4,5-b]pyridin-5-yl)phenyl)piperidin-4-yl dimethylcarbamate] | 32 | 109 | 1.85
3 | O=C(N[C@H]1CC[C@@H](c2ccc(-c3nc4[nH]c(O[C@@H]5CO[C@H]6[C@@H]5OC[C@H]6O)nc4cc3Cl)cc2)CC1)OC1CCCC1 [Example 3, Cyclopentyl (cis)-4-(4-(6-chloro-2-((3R,3aR,6R,6aR)-6-hydroxyhexahydrofuro[3,2-b]furan-3-yloxy)-3H-imidazo[4,5-b]pyridin-5-yl)phenyl)cyclohexylcarbamate] | 108 | 117 | 0.317
4 | CC(C)OC(=O)N[C@H]1CC[C@@H](c2ccc(-c3nc4[nH]c(O[C@@H]5CO[C@H]6[C@@H]5OC[C@H]6O)nc4cc3Cl)cc2)CC1 [Example 4, Isopropyl (cis)-4-(4-(6-chloro-2-((3R,3aR,6R,6aR)-6-hydroxyhexahydrofuro[3,2-b]furan-3-yloxy)-3H-imidazo[4,5-b]pyridin-5-yl)phenyl)cyclohexylcarbamate] | 12 | 103 | >2.17
5 | O=C(N[C@H]1CC[C@@H](c2ccc(-c3nc4[nH]c(O[C@@H]5CO[C@H]6[C@@H]5OC[C@H]6O)nc4cc3Cl)cc2)CC1)OC1CCOCC1 [Example 5, Tetrahydro-2H-pyran-4-yl (cis)-4-(4-(6-chloro-2-((3R,3aR,6R,6aR)-6-hydroxyhexahydrofuro[3,2-b]furan-3-yloxy)-3H-imidazo[4,5-b]pyridin-5-yl)phenyl)cyclohexylcarbamate] | 119 | 106 | 1.13
6 | O=C(O[C@H]1CC[C@H](c2ccc(-c3nc4[nH]c(O[C@@H]5CO[C@H]6[C@@H]5OC[C@H]6O)nc4cc3Cl)cc2)CC1)N1CCOCC1 [Example 6, (trans)-4-(4-(6-Chloro-2-((3R,3aR,6R,6aR)-6-hydroxyhexahydrofuro[3,2-b]furan-3-yloxy)-3H-imidazo[4,5-b]pyridin-5-yl)phenyl)cyclohexyl morpholine-4-carboxylate] | 6 | 98 | >2.17
7 | CCNC(=O)O[C@H]1CC[C@H](c2ccc(-c3nc4[nH]c(O[C@@H]5CO[C@H]6[C@@H]5OC[C@H]6O)nc4cc3Cl)cc2)CC1 [Example 7, (trans)-4-(4-(6-Chloro-2-((3R,3aR,6R,6aR)-6-hydroxyhexahydrofuro[3,2-b]furan-3-yloxy)-3H-imidazo[4,5-b]pyridin-5-yl)phenyl)cyclohexyl ethylcarbamate] | 468 | – | –
8 | CC(C)NC(=O)O[C@H]1CC[C@H](c2ccc(-c3nc4[nH]c(O[C@@H]5CO[C@H]6[C@@H]5OC[C@H]6O)nc4cc3Cl)cc2)CC1 [Example 8, (trans)-4-(4-(6-Chloro-2-((3R,3aR,6R,6aR)-6-hydroxyhexahydrofuro[3,2-b]furan-3-yloxy)-3H-imidazo[4,5-b]pyridin-5-yl)phenyl)cyclohexyl isopropylcarbamate] | 339 | 102 | >2.17
9 | O=C(O[C@H]1CC[C@H](c2ccc(-c3nc4[nH]c(O[C@@H]5CO[C@H]6[C@@H]5OC[C@H]6O)nc4cc3Cl)cc2)CC1)N1CCCC1 [Example 9, (trans)-4-(4-(6-Chloro-2-((3R,3aR,6R,6aR)-6-hydroxyhexahydrofuro[3,2-b]furan-3-yloxy)-3H-imidazo[4,5-b]pyridin-5-yl)phenyl)cyclohexyl pyrrolidine-1-carboxylate] | 17 | 100 | >2.17
10 | O=C(O[C@H]1CC[C@@H](c2ccc(-c3nc4[nH]c(O[C@@H]5CO[C@H]6[C@@H]5OC[C@H]6O)nc4cc3Cl)cc2)CC1)N1CCOCC1 [Example 12, (cis)-4-(4-(6-Chloro-2-((3R,3aR,6R,6aR)-6-hydroxyhexahydrofuro[3,2-b]furan-3-yloxy)-3H-imidazo[4,5-b]pyridin-5-yl)phenyl)cyclohexyl morpholine-4-carboxylate] | 1310 | – | –
11 | O=C(O[C@H]1CC[C@@H](c2ccc(-c3nc4[nH]c(O[C@@H]5CO[C@H]6[C@@H]5OC[C@H]6O)nc4cc3Cl)cc2)CC1)N1CCCC1 [Example 13, (cis)-4-(4-(6-Chloro-2-((3R,3aR,6R,6aR)-6-hydroxyhexahydrofuro[3,2-b]furan-3-yloxy)-3H-imidazo[4,5-b]pyridin-5-yl)phenyl)cyclohexyl pyrrolidine-1-carboxylate] | 2040 | – | –
12 | CC(C)NC(=O)OC1CCN(c2ccc(-c3nc4[nH]c(O[C@@H]5CO[C@H]6[C@@H]5OC[C@H]6O)nc4cc3Cl)cc2)CC1 [Example 14, 1-(4-(6-Chloro-2-((3R,3aR,6R,6aR)-6-hydroxyhexahydrofuro[3,2-b]furan-3-yloxy)-3H-imidazo[4,5-b]pyridin-5-yl)phenyl)piperidin-4-yl isopropylcarbamate] | 578 | – | –
13 | O=C(OC1CCN(c2ccc(-c3nc4[nH]c(O[C@@H]5CO[C@H]6[C@@H]5OC[C@H]6O)nc4cc3Cl)cc2)CC1)N1CCOCC1 [Example 15, 1-(4-(6-Chloro-2-((3R,3aR,6R,6aR)-6-hydroxyhexahydrofuro[3,2-b]furan-3-yloxy)-3H-imidazo[4,5-b]pyridin-5-yl)phenyl)piperidin-4-yl morpholine-4-carboxylate] | 133 | – | –
14 | CC(C)OC(=O)NC1CCN(c2ccc(-c3nc4[nH]c(O[C@@H]5CO[C@H]6[C@@H]5OC[C@H]6O)nc4cc3Cl)cc2)CC1 [Example 16, Isopropyl 1-(4-(6-chloro-2-((3R,3aR,6R,6aR)-6-hydroxyhexahydrofuro[3,2-b]furan-3-yloxy)-3H-imidazo[4,5-b]pyridin-5-yl)phenyl)piperidin-4-ylcarbamate] | 290 | – | –
